As a reminder, the IC50 is the concentration at which inhibition is half-maximal.

The test deals with ATXN3 pre-mRNA. Put plainly: ATXN3 Quantitative Splicing Assay (qPCR, E4E5 primers/probe detecting transcripts containing exon 4). Particulars: Human neuroblastoma SK-N-MC cells, 24 h treatment, qPCR of transcripts containing exon 4; read-out: ATXN3 Potency - Splicing: ATXN3 E4E5 IC50. The test is classed as cell-based. How it is done:
Human neuroblastoma SK-N-MC cells were plated in 384-well plates at 20,000 cells/well. Twenty-four hours after plating, cells were treated with compounds for 24 h at appropriate concentrations ranging from 30 μM to 0.6 nM (0.3% DMSO). Treated cells were lysed in 15 μL of lysis buffer, and cDNA was synthesized using the Fast Advanced Cells-to-Ct kit. Two μL of each cDNA was used in qPCR reactions to confirm the exon 4 skipped transcripts of ATXN3. A second set of primers/probe E4E5 was used to detect the transcripts containing exon 4. The third set of primers/probe E8E9 was used to detect total gene level of ATXN3. The qPCR reactions were prepared in 384-well plates in 10 μL volume, using TaqMan™ Fast Advanced Master Mix with primers and probes shown in the table below. Reactions were run in a Quant Studio 6 qPCR instrument with default settings.
The primers and probes are listed below in Table 3.

Turning to `Cc1c(C[C@@H](N)[C@H](C)F)cc2c(NCc3ccon3)nc(Cl)nn12` [Compound 9, 6-((2R,3S)-2-amino-3-fluorobutyl)-2-chloro-N-(isoxazol-3-ylmethyl)-7-methylpyrrolo[2,1-f][1,2,4]triazin-4-amine], the 50% inhibitory concentration (IC50) lay in the range of 501 to 5000 nM.
Turning to `C[C@H](F)[C@H](N)Cc1cc2c(NCc3ccsn3)nc(Cl)nn2c1Br` [Compound 8, 6-((2R,3S)-2-amino-3-fluorobutyl)-7-bromo-2-chloro-N-(isothiazol-3-ylmethyl)pyrrolo[2,1-f][1,2,4]triazin-4-amine], the half-inhibitory concentration (IC50) lay within 0.01 to 100 nM.
In the case of `C[C@H](F)[C@H](N)Cc1cc2c(NCc3ncco3)nc(Cl)nn2c1Cl` [Compound 6, 6-((2R,3S)-2-amino-3-fluorobutyl)-2,7-dichloro-N-(oxazol-2-ylmethyl)pyrrolo[2,1-f][1,2,4]triazin-4-amine], the IC50 lay in the range of 101 to 500 nM.
In the case of `Cc1c(C[C@@H](N)[C@H](C)F)cc2c(NCc3nccs3)nc(Cl)nn12` [Compound 4, 6-((2R,3S)-2-amino-3-fluorobutyl)-2-chloro-7-methyl-N-(thiazol-2-ylmethyl)pyrrolo[2,1-f][1,2,4]triazin-4-amine], the half-maximal inhibitory concentration (IC50) was in the range of 101 to 500 nM.
Take `Cc1c(C[C@@H](N)[C@H](C)F)cc2c(NCc3ncco3)nc(Cl)nn12` [Compound 2, 6-((2R,3S)-2-amino-3-fluorobutyl)-2-chloro-7-methyl-N-(oxazol-2-ylmethyl)pyrrolo[2,1-f][1,2,4]triazin-4-amine]: the concentration for half-maximal inhibition (IC50) was in the range of 501 to 5000 nM.
Consider `C[C@H](F)[C@H](N)Cc1cc2c(NCc3nccs3)nc(Cl)nn2c1Cl` [Compound 5, 6-((2R,3S)-2-amino-3-fluorobutyl)-2,7-dichloro-N-(thiazol-2-ylmethyl)pyrrolo[2,1-f][1,2,4]triazin-4-amine], for which the IC50 was 101 to 500 nM.
With `C[C@H](F)[C@H](N)Cc1cc2c(NCc3ccon3)nc(Cl)nn2c1Br` [Compound 7, 6-((2R,3S)-2-amino-3-fluorobutyl)-7-bromo-2-chloro-N-(isoxazol-3-ylmethyl)pyrrolo[2,1-f][1,2,4]triazin-4-amine], the concentration for half-maximal inhibition (IC50) was 101 to 500 nM.
The value for `C[C@H](F)[C@H](N)Cc1cc2c(NCc3nccs3)nc(Cl)nn2c1Br` [Compound 3, 6-((2R,3S)-2-amino-3-fluorobutyl)-7-bromo-2-chloro-N-(thiazol-2-ylmethyl)pyrrolo[2,1-f][1,2,4]triazin-4-amine] was 101 to 500 nM; that for `Cc1c(C[C@@H](N)[C@H](C)F)cc2c(NCc3ccsn3)nc(Cl)nn12` [Compound 10, 6-((2R,3S)-2-amino-3-fluorobutyl)-2-chloro-N-(isothiazol-3-ylmethyl)-7-methylpyrrolo[2,1-f][1,2,4]triazin-4-amine] was 101 to 500 nM; that for `C[C@H](F)[C@H](N)Cc1cc2c(NCc3ncco3)nc(Cl)nn2c1Br` [Compound 1, 6-((2R,3S)-2-amino-3-fluorobutyl)-7-bromo-2-chloro-N-(oxazol-2-ylmethyl)pyrrolo[2,1-f][1,2,4]triazin-4-amine] was 101 to 500 nM.

These data come from patent publication US20260226062A1, “COMPOSITIONS USEFUL FOR MODULATING SPLICING” (Skyhawk Therapeutics, Inc., priority 2023, published 2026).
